Earlier results in patent US6521608B1, “Vitamin D and its analogs in the treatment of tumors and other hyperproliferative disorders” (Oregon Health & Science University, priority 1998, dated 2003).
Where “and” joins values, the source holds several entries; their conditions need not be identical. Equal values may be shown once.

Experiments:
VDR (chick intestine) = target: T1, VDR (chick intestine) (Gallus gallus, UniProt O42392); conditions: cited from earlier work
T1 construct: SPC indicates the species of origin of the nVDR where c=chick intestine, r=rat intestine; from tissue; host or cells: chick intestine
T1 sequence (O42392 1-451): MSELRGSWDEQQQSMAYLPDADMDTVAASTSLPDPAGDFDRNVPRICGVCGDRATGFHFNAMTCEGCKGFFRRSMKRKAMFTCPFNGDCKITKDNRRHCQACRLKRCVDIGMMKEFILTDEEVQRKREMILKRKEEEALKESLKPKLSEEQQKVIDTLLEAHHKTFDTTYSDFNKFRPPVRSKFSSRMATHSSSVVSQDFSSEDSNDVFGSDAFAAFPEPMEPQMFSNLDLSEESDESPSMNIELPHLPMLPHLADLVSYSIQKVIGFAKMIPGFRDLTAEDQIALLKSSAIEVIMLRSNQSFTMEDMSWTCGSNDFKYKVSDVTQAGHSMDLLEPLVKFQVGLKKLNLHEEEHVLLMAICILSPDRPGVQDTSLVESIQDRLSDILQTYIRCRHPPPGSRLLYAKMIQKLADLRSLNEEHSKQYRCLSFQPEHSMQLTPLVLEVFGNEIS

VDR (rat intestine) = target: T2, VDR (rat intestine) (Rattus norvegicus, UniProt P13053); conditions: cited from earlier work
T2 construct: SPC indicates the species of origin of the nVDR where c=chick intestine, r=rat intestine; from tissue; host or cells: rat intestine
T2 sequence (P13053 1-423): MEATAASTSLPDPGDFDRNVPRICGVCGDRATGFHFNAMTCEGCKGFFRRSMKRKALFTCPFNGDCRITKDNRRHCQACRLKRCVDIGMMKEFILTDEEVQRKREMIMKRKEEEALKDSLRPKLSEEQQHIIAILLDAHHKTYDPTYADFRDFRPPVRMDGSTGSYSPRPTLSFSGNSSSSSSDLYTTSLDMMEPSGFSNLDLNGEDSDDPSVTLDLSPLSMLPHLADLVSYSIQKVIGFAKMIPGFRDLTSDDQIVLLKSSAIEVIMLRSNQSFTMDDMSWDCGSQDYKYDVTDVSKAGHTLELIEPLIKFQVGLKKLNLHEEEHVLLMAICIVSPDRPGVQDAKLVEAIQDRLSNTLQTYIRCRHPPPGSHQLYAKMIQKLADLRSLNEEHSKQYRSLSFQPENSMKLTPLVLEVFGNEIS

[1] = relative to calcitriol = 1; cited from earlier work
[2] = target: T3, VDR (rat osteosarcoma ROS 17/2.8 cells) (Rattus norvegicus, UniProt P13053); conditions: cited from earlier work
T3 construct: m=MCF-7 human breast cancer cells, z=rat osteosarcoma ROS 17/2.8 cells; endogenous in cells; host or cells: ROS 17/2.8 rat osteosarcoma cells
T3 sequence (P13053 1-423): T2 sequence (P13053 1-423)

[3] = target: T4, VDR (MCF-7 human breast cancer cells) (Homo sapiens, UniProt P11473); conditions: MCF-7 cells; cited from earlier work
T4 construct: m=MCF-7 human breast cancer cells, z=rat osteosarcoma ROS 17/2.8 cells; endogenous in cells; host or cells: MCF-7 human breast cancer cells
T4 sequence (P11473 1-427): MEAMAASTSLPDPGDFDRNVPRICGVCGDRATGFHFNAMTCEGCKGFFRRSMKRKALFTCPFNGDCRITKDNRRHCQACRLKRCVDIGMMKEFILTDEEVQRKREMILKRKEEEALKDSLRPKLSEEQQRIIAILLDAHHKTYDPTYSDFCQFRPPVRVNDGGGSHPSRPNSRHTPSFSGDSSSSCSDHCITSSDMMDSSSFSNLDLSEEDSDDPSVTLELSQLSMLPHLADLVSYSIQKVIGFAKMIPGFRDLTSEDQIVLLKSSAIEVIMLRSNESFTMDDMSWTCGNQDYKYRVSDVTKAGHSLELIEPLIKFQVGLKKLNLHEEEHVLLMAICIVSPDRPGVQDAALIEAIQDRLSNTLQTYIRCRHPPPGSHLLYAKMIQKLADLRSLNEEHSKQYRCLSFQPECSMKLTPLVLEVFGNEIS

[4] = tested on: locally advanced or cutaneous metastatic breast cancer; conditions: topical, cited from earlier work
VDR (U-937 cells) = target: T5, VDR (U-937 cells) (Homo sapiens, UniProt P11473); conditions: cited from earlier work
T5 construct: obtained in human transformed cell lines where h=HL-60 cells, u=U-937; endogenous in cells; host or cells: U-937
T5 sequence (P11473 1-427): T4 sequence (P11473 1-427)

Molecule | Relative Competitive index for VDR (Calcitriol = 100) (VDR (chick intestine)) | Relative Competitive index for VDR (Calcitriol = 100) (VDR (rat intestine)) | calcemic index (CI) [1] | also measured
25-(OH)2-16-ene-23-yne-D3 | 0.4 (chick) and <0.4 (chick) | 0.07 (rat intestine) |  | 
C=C1/C(=C\C=C2/CCC[C@]3(C)C([C@H](C)CC#CC(C)(C)O)=CC[C@@H]23)C[C@@H](O)C[C@@H]1O [1,25-(OH)2-16-Ene-23-yne-D3, 1,25-(OH)2-16-ene-23-yne-D3] | 68 (chick) and 70 (chick) and 90 (chick) and 80 (chick) | 50 (rat intestine) |  | 
C=C1/C(=C\C=C2/CCC[C@]3(C)C([C@H](C)CCCC(C)(C)O)=CC[C@@H]23)C[C@@H](O)C[C@@H]1O [1,25-(OH)2-16-Ene-D3, 1,25-(OH)2-16-ene-D3] | 165 (chick) | 240 (rat intestine) and 250 (rat intestine) |  | 
C=C1/C(=C\C=C2/CCC[C@]3(C)[C@@H]([C@H](C)CCCC(C)C)CC[C@@H]23)C[C@@H](O)C[C@@H]1O [1alpha-(OH)-D3, 1α-hydroxyvitamin D3] | 0.17 (chick) |  |  | 
C=C1C(=CC=C2CC(CF)CC3(C)C2CCC3C(C)CCCC(C)(C)O)CC(O)CC1O (stereo not drawn) [11α-fluoromethyl-1α,25-(OH)2-D3] |  |  | about 0.1 | 
C=C1/C(=C\C=C2/CCC[C@]3(C)[C@@H]([C@H](C)OCCC(C)(C)O)CC[C@@H]23)C[C@@H](O)C[C@@H]1O [22-Oxacalcitriol, 22-oxa-1α,25-(OH)2-D3] |  |  | CI < 0.001 | Relative Competitive index for VDR (Calcitriol = 100) [2]: 100 (rat osteosarcoma); Relative Competitive index for VDR (Calcitriol = 100) [3]: 100 (MCF-7 cells)
C=C1/C(=C\C=C2/CCC[C@]3(C)[C@@H]([C@H](C)/C=C/C=C/C(O)(CC)CC)CC[C@@H]23)C[C@@H](O)C[C@@H]1O [EB 1089, 24a,26a,27a-trihomo-22,24-diene-1α, 25-(OH)2-D3] | 17 (chick) |  |  | 
C=C1/C(=C\C=C2/CCC[C@]3(C)[C@@H]([C@@H](C)OCCCC(O)(CC)CC)CC[C@@H]23)C[C@@H](O)C[C@@H]1O [KH 1060, 20-epi-22-oxa-24a,26a,27a-trihomo-1α,25-(OH)2-D3] |  |  | CI = 1.3 | 
C=C1/C(=C\C=C2/CCC[C@]3(C)[C@@H]([C@H](C)/C=C/[C@@H](O)C4CC4)CC[C@@H]23)C[C@@H](O)C[C@@H]1O [MC 903, 1[…]24S-(OH)2-22-Ene-26,27-dehydro-D3] | 111 (chick) and 76 (chick) and 100 (chick) |  | CI < 0.01 | patients with a 50% reduction in the bidirectional diameter of the treated lesions ([4]; patients who completed 6 weeks of treatment): Three of the 14; hypercalcemia [4]: hypercalcemia was a complication of the treatment; Relative Competitive index for VDR (Calcitriol = 100) (VDR (U-937 cells)): 240 (U-937 cells)
C=C1/C(=C\C=C2/CCC[C@]3(C)[C@@H]([C@H](C)CCCC(C)(C)O)CC[C@@H]23)C[C@@H](O)C[C@@H]1O [MC 1288, 1,25(OH2-20-epi-D3] | 147 (chick) and 120 (chick) |  |  | 
